ChEMBL document CHEMBL5252613, “Discovery and anti-tumor activity of 4-(benzylamino)-6-(3,5-dimethylisoxazol-4-yl)quinolin-2(1H)-one (CG13250), a potent, selective and orally bioavailable BET bromodomain inhibitor” (Bioorg Med Chem Lett, 2023)
Active and inactive are the calls of the source. No cut-off for these calls is given here.

Columns and labels:
[1] = Half-life in CD-1 mouse plasma at 50 mg/kg, po; assay type: ADME, organism-based
[2] = target: T1, Bromodomain-containing protein 4 (Homo sapiens, UniProt O60885); experiment: Inhibition of BRD4 bromodomain 1/2 (unknown origin) by Alphascreen assay
[3] = Toxicity in mouse xenografted with human Kasumi 1 cells assessed as signs of toxicity at 50 mg/kg, po administered once a day for 15 days starting from 25 days after transplantation; assay type: organism-based; conditions: in vivo, 360 h, time 15 day
[4] = Stability in mouse liver microsomes assessed as half-life; assay type: ADME, Microsome
[5] = Half-life in CD-1 mouse brain at 50 mg/kg, po; assay type: ADME, organism-based
[6] = target: T1, Bromodomain-containing protein 4; experiment: Inhibition of BRD4 bromodomain 1/2 (unknown origin) assessed as dissociation constant by DiscoveRx BROMOscan assay
Cytochrome P450 1A2 = target: T2, Cytochrome P450 1A2 (Homo sapiens, UniProt P05177); experiment: Inhibition of CYP1A2 (unknown origin) by fluorescence based assay; assay type: ADME
T2 sequence (P05177 whole entry): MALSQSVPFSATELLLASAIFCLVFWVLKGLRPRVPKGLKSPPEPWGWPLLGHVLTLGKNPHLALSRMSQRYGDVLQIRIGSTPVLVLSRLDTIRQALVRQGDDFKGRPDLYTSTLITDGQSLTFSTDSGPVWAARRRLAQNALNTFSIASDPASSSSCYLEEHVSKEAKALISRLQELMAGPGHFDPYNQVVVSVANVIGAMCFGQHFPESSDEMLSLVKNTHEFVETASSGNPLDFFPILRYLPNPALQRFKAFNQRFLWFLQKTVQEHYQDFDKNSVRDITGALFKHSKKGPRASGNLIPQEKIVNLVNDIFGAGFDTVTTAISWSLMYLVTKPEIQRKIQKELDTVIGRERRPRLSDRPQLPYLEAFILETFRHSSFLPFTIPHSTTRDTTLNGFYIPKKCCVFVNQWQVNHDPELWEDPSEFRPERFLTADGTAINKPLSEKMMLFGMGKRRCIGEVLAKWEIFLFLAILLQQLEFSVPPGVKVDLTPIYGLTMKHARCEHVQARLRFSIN

[7] = Tmax in CD-1 mouse brain at 50 mg/kg, po; assay type: ADME, organism-based
[8] = Tmax in CD-1 mouse plasma at 50 mg/kg, po; assay type: ADME, organism-based
[9] = Cmax in CD-1 mouse plasma at 10 mg/kg, sc; assay type: ADME, organism-based; design: dose 10 mg/kg, route sc
Peregrin (Homo sapiens) = target: T3, Peregrin (Homo sapiens) (UniProt P55201); experiment: Inhibition of BRPF1 (unknown origin) at 10 uM by DiscoverX BROMOscan assay
T3 sequence (whole entry): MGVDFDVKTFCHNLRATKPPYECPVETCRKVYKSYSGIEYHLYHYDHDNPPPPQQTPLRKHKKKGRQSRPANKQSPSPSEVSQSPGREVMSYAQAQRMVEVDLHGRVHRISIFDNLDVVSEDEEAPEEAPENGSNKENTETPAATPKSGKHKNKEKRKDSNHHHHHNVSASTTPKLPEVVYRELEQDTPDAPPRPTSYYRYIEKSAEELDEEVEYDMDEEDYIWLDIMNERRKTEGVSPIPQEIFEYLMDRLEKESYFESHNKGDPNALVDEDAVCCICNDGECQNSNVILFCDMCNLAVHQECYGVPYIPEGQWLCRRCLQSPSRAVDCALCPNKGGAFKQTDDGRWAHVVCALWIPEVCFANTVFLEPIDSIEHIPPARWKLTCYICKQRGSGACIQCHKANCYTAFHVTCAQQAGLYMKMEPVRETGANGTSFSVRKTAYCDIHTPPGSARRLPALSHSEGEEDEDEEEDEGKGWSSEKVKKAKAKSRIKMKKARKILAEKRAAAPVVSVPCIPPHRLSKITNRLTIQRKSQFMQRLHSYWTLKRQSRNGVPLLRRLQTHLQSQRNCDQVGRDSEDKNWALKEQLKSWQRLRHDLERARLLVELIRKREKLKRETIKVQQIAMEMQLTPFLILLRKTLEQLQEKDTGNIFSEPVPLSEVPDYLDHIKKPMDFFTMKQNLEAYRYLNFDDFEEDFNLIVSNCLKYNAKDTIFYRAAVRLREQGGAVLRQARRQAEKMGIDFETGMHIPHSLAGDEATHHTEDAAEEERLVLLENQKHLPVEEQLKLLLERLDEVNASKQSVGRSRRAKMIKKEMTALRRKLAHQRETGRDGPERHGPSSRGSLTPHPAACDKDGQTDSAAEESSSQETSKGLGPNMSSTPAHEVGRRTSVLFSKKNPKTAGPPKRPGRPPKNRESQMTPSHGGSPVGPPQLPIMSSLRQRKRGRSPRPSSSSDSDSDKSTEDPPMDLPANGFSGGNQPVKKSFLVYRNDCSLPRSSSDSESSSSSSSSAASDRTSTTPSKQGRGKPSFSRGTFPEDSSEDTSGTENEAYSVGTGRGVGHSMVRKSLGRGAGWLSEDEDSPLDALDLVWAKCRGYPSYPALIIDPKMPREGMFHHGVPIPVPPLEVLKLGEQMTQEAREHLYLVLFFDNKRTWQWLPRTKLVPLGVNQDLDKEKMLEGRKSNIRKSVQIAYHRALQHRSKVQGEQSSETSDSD

[10] = Toxicity in mouse xenografted with human Kasumi 1 cells assessed as effect on body weight at 50 mg/kg, po administered once a day for 15 days starting from 25 days after transplantation; assay type: organism-based; conditions: in vivo, 360 h, time 15 day
[11] = Cmax in rat plasma at 50 mg/kg, po; assay type: ADME, organism-based; design: dose 50 mg/kg, route po
[12] = target: T4, Bromodomain-containing protein 9 (Homo sapiens) (UniProt Q9H8M2); experiment: Inhibition of BRD9 (unknown origin) at 10 uM by DiscoverX BROMOscan assay
T4 sequence (whole entry): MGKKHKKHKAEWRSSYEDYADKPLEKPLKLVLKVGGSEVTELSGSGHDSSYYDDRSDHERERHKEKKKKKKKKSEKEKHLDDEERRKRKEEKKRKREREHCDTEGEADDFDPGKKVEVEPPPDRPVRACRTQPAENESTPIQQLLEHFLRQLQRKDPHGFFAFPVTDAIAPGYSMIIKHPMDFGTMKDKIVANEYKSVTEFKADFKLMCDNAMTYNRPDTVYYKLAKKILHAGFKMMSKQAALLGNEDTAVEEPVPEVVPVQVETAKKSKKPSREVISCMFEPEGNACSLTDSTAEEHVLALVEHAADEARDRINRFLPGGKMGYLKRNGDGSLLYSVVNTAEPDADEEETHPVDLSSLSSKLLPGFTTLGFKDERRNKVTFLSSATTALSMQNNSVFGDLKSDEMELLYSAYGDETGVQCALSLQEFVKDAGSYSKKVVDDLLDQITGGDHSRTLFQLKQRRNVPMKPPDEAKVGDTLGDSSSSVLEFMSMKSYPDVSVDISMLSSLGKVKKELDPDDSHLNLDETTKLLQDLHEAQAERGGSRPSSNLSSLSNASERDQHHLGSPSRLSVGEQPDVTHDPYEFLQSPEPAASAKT

Kasumi 1 = experiment: Antitumor activity against human Kasumi 1 cells xenografted in mouse assessed as tumor growth inhibition at 50 mg/kg, po administered once a day for 15 days starting from 25 days after transplantation relative to control; assay type: functional; conditions: Kasumi 1, 360 h, time 15 day, read-out: TGI
Cytochrome P450 2C19 = Cytochrome P450 2C19 (Homo sapiens, UniProt P33261); experiment: Inhibition of CYP2C19 (unknown origin) by fluorescence based assay; assay type: ADME
Chain of Cytochrome P450 2C19 (P33261 whole entry): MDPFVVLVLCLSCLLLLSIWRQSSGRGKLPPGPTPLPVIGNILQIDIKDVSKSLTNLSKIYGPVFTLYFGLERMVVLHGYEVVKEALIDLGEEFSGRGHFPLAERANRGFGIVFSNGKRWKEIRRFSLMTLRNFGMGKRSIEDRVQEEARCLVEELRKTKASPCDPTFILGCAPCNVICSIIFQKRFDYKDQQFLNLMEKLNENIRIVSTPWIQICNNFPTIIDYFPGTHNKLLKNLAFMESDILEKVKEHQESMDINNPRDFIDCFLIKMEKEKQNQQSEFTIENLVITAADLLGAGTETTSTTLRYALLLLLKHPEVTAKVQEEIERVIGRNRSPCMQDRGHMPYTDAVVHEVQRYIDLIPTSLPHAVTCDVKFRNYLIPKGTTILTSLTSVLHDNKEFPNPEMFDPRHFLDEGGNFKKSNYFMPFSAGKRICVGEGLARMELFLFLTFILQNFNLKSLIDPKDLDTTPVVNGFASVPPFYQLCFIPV

[13] = Tmax in rat plasma at 50 mg/kg, po; assay type: ADME, organism-based
[14] = target: Histone acetyltransferase p300 (Homo sapiens) (UniProt Q09472); experiment: Inhibition of EP300 (unknown origin) at 10 uM by DiscoverX BROMOscan assay
[15] = AUC(0 to t) in CD-1 mouse brain at 50 mg/kg, po; assay type: ADME, organism-based; design: dose 50 mg/kg, route po
[16] = Half-life in CD-1 mouse plasma at 10 mg/kg, sc; assay type: ADME, organism-based
[17] = target: CREB-binding protein (Homo sapiens) (UniProt Q92793); experiment: Inhibition of CREBBP (unknown origin) at 10 uM by DiscoverX BROMOscan assay
Chain of CREB-binding protein (Homo sapiens) (Q92793 2-2442 limits assumed): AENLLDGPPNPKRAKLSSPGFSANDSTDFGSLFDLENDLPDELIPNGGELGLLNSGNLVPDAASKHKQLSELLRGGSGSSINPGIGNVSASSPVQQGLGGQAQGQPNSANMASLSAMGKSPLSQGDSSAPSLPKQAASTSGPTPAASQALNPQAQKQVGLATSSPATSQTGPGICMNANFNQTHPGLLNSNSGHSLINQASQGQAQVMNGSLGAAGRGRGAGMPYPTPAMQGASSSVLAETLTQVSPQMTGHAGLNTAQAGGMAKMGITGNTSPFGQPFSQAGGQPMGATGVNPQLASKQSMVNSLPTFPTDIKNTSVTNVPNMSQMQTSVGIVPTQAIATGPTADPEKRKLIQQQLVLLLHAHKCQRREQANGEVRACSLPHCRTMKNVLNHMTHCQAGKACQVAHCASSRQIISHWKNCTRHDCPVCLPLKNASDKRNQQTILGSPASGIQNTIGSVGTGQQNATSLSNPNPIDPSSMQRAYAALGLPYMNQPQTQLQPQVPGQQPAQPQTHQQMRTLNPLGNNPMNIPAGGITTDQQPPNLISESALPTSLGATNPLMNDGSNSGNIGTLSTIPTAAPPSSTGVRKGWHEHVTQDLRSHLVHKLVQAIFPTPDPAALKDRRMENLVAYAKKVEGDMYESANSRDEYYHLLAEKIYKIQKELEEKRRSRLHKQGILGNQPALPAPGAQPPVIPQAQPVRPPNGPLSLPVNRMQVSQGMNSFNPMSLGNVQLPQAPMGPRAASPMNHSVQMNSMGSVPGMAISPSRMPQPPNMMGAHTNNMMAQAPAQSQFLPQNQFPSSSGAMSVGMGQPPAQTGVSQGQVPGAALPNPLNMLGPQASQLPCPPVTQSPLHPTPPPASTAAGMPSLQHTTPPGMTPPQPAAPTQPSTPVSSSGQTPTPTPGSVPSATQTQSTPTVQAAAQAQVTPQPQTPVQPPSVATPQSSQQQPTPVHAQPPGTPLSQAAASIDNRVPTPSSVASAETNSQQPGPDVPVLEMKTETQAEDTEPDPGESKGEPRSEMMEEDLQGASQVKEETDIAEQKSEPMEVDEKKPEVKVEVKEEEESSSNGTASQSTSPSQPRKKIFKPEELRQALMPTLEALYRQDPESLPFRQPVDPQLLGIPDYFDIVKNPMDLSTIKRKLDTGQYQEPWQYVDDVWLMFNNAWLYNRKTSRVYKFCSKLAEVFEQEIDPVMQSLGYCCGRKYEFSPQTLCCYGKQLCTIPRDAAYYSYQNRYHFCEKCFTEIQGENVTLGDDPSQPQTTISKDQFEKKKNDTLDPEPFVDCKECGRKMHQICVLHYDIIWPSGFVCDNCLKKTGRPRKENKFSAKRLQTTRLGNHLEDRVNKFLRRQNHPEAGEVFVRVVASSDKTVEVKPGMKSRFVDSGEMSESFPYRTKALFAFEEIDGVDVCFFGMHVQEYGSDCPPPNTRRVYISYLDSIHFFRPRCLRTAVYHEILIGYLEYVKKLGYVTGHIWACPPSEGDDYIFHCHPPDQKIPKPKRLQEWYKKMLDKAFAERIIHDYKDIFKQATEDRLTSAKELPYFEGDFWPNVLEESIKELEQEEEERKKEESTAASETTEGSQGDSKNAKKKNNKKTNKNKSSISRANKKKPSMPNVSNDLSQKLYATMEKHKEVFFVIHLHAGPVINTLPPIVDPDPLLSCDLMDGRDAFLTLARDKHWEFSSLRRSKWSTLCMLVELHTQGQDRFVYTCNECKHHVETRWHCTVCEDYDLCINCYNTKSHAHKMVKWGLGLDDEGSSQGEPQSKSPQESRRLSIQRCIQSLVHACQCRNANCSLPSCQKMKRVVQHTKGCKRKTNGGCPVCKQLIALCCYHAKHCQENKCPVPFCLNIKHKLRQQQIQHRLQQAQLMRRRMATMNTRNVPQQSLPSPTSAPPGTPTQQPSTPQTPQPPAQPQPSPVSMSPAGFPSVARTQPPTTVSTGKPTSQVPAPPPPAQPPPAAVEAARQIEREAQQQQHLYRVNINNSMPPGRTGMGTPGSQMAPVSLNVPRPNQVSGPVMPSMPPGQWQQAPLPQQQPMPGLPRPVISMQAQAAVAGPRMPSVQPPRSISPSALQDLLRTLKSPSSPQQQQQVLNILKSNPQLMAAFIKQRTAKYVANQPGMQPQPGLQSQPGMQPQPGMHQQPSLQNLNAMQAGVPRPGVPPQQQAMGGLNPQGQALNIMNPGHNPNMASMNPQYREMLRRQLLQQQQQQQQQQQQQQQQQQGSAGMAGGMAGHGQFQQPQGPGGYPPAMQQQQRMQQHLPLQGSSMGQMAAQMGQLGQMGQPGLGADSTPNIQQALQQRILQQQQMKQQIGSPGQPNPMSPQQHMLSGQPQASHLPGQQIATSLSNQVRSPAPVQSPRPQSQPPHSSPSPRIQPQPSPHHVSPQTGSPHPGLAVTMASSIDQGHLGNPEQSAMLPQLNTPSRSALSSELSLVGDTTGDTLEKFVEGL

[18] = AUC(0 to t) in CD-1 mouse plasma at 10 mg/kg, sc; assay type: ADME, organism-based; design: dose 10 mg/kg, route sc
[19] = Tmax in CD-1 mouse plasma at 10 mg/kg, sc; assay type: ADME, organism-based
[20] = Half-life in rat plasma at 50 mg/kg, po; assay type: ADME, organism-based
[21] = AUC(0 to t) in CD-1 mouse plasma at 50 mg/kg, po; assay type: ADME, organism-based; design: dose 50 mg/kg, route po
[22] = Cmax in CD-1 mouse brain at 50 mg/kg, po; assay type: ADME, organism-based; design: dose 50 mg/kg, route po
[23] = AUC(0 to t) in rat plasma at 50 mg/kg, po; assay type: ADME, organism-based; design: dose 50 mg/kg, route po
Cytochrome P450 2D6 = Cytochrome P450 2D6 (Homo sapiens, UniProt P10635); experiment: Inhibition of CYP2D6 (unknown origin) by fluorescence based assay; assay type: ADME
Chain of Cytochrome P450 2D6 (P10635 whole entry): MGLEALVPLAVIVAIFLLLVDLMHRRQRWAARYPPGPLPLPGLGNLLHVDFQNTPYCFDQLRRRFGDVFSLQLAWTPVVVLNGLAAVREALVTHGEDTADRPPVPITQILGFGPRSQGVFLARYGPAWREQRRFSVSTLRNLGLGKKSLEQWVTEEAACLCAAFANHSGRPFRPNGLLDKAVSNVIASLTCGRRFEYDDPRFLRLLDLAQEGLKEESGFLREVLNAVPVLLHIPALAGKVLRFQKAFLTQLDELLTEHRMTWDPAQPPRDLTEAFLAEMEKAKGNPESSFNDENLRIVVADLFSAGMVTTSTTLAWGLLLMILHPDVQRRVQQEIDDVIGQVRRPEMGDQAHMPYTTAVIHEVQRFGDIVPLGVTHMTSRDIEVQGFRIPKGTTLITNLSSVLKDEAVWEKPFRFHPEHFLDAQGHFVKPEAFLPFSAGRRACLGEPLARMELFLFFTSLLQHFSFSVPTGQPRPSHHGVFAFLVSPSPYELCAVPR

[24] = Stability in human liver microsomes assessed as half-life; assay type: ADME, Microsome
Cytochrome P450 2C9 = Cytochrome P450 2C9 (Homo sapiens, UniProt P11712); experiment: Inhibition of CYP2C9 (unknown origin) by fluorescence based assay; assay type: ADME
[25] = Cmax in CD-1 mouse plasma at 50 mg/kg, po; assay type: ADME, organism-based; design: dose 50 mg/kg, route po
Cytochrome P450 3A4 = Cytochrome P450 3A4 (Homo sapiens, UniProt P08684); experiment: Inhibition of CYP3A4 (unknown origin) by fluorescence based assay; assay type: ADME
Chain of Cytochrome P450 3A4 (P08684 whole entry): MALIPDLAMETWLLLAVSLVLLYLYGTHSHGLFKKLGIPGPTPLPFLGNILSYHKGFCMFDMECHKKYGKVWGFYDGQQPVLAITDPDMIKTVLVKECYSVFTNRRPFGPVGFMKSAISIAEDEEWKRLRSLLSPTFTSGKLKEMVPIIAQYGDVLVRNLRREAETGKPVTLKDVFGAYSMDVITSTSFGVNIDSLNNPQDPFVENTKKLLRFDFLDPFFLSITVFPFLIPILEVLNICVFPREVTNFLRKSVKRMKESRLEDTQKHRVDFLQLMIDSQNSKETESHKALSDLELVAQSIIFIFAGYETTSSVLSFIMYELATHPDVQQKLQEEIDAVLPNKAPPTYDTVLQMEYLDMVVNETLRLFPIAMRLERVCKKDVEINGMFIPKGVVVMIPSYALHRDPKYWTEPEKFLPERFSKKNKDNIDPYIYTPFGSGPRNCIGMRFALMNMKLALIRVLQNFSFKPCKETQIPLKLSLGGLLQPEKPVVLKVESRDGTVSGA

[26] = target: Non-receptor tyrosine-protein kinase TYK2 (Homo sapiens) (UniProt P29597); experiment: Inhibition of TYK2 (unknown origin) at 10 uM by DiscoverX KINOMEscan relative to control
MV4-11 = experiment: Growth inhibition of human MV4-11 cells measured after 72 hrs; assay type: functional
[27] = target: Tyrosine-protein kinase JAK1 (Homo sapiens) (UniProt P23458); experiment: Inhibition of JAK1 JH2 (unknown origin) at 10 uM by DiscoverX KINOMEscan relative to control
Chain of Tyrosine-protein kinase JAK1 (Homo sapiens) (P23458 whole entry): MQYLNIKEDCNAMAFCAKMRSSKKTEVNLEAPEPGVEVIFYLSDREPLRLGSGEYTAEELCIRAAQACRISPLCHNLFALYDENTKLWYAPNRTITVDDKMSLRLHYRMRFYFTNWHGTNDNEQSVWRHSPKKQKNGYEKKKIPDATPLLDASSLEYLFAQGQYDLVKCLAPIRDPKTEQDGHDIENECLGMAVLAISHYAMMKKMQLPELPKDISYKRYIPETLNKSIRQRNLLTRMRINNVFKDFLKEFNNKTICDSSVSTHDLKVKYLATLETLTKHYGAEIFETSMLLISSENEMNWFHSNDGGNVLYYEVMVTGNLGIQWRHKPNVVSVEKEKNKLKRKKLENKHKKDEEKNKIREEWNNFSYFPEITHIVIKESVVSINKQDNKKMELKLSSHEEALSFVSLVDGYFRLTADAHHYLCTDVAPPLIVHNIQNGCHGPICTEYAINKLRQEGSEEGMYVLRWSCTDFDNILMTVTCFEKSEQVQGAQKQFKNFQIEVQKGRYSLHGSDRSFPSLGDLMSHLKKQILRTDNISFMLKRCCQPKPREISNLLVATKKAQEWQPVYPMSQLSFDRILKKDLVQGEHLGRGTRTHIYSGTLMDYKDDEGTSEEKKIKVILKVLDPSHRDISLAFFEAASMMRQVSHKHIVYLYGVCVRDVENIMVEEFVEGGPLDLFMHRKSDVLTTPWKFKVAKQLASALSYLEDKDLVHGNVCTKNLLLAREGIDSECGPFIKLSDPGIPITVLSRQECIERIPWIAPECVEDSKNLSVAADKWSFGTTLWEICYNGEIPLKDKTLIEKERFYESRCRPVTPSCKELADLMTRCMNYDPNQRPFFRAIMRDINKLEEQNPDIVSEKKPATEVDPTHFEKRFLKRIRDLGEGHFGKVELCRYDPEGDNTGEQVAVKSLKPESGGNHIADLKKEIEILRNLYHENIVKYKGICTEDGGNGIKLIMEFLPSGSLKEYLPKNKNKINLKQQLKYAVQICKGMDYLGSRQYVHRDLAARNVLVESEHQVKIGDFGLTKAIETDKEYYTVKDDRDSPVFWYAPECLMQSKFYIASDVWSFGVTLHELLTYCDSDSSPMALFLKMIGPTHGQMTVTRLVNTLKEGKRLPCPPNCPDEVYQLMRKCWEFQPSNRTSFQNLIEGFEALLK

Cc1noc(C)c1-c1ccc2[nH]c(=O)cc(NCc3ccccc3)c2c1
half-life [1]: 1.02 h
IC50 [2]: 1100 nM
Activity [3]: Non-Toxic
half-life [4]: 0.412 h
half-life [5]: 1.39 h
Kd [6]: 44 nM
IC50 (Cytochrome P450 1A2): > 30000 nM
Tmax [7]: 0.5 h
Tmax [8]: 2 h
Cmax [9]: 7770 ng/mL
inhibition (Peregrin (Homo sapiens)): Active
Activity [10]: Non-Toxic
Cmax [11]: 9340 ng/mL
inhibition [12]: Active
inhibition in vivo at 50 mg/kg (Kasumi 1): 60%
IC50 (Cytochrome P450 2C19): > 30000 nM
Tmax [13]: 1.5 h
inhibition [14]: Active
AUC(0-t) [15]: 755 ng·h/mL
half-life [16]: 2.33 h
inhibition [17]: Active
AUC(0-t) [18]: 25100 ng·h/mL
Tmax [19]: 1 h
half-life [20]: 2 h
AUC(0-t) [21]: 178000 ng·h/mL
Cmax [22]: 289 ng/mL
AUC(0-t) [23]: 34600 ng·h/mL
IC50 (Cytochrome P450 2D6): > 30000 nM
half-life [24]: 0.202 h
IC50 (Cytochrome P450 2C9): 6770 nM
Cmax [25]: 60900 ng/mL
IC50 (Cytochrome P450 3A4): > 30000 nM
inhibition [26]: > 65%
GI50 (MV4-11): 595 nM
inhibition [27]: > 65%

Cc1noc(C)c1-c1ccc2[nH]c(=O)cc(NCCc3ccccc3)c2c1
Kd [6]: 490 nM
GI50 (MV4-11): 5720 nM

Cc1noc(C)c1-c1ccc2[nH]c(=O)cc(NCc3ccc(Cl)cc3)c2c1
Kd [6]: 210 nM
GI50 (MV4-11): 1700 nM

Cc1noc(C)c1-c1ccc2[nH]c(=O)cc(O)c2c1
IC50 [2]: 16000 nM
Kd [6]: 3400 nM
GI50 (MV4-11): > 100000 nM

COc1ccccc1CNc1cc(=O)[nH]c2ccc(-c3c(C)noc3C)cc12
Kd [6]: 35 nM
GI50 (MV4-11): 1040 nM

Cc1noc(C)c1-c1ccc2[nH]c(=O)cc(NCc3ccccc3F)c2c1
Kd [6]: 130 nM

Cc1noc(C)c1-c1ccc2[nH]c(=O)cc(N3CCCCC3)c2c1
Kd [6]: 54 nM
GI50 (MV4-11): 833 nM

Cc1noc(C)c1-c1ccc2[nH]c(=O)cc(-c3ccccc3)c2c1
IC50 [2]: 3100 nM
Kd [6]: 1300 nM
GI50 (MV4-11): 16000 nM

Cc1noc(C)c1-c1ccc2[nH]c(=O)cc(NCC3CCCCC3)c2c1
Kd [6]: 250 nM
GI50 (MV4-11): 3780 nM

Cc1noc(C)c1-c1ccc2[nH]c(=O)cc(NCc3cccc(C(F)(F)F)c3)c2c1
Kd [6]: 220 nM
